These results are taken from patent publication US11440939B2, “Anticancer peptides” (IDP DISCOVERY PHARMA, S.L., priority 2017, dated 2022).

Holding throughout (type): cell-based
One assay relates to cancer cell lines. In words: Inhibition of cancer cell proliferation, general statements. Here is the method:
(§1) MCF-7, NCI-H187, NCI-H69, NCI-H526 and H5B cells were seeded at a density of 5000 cells/well; NCI-H524 and NCI-H82 were seeded at a density of 2500 cells/well; HL-60 and NCI-H510A at 10000 cells/well in 100 μl of medium in 96 well plates. After 24 h, the compounds to be tested were added to calculate the dose/response curve at the starting concentration of 100 μM with serial dilutions (1:1). Controls were the untreated cells. Each experiment was performed in triplicate.
(§2) Cells were incubated during 72 h in incubator under CO2 atmosphere at 37° C. Cell viability was measured by means of MTT (3-(4,5-dimethylthiazol-2-yl)-2,5-diphenyltetrazolium bromide) assay, Alamar Blue® (Biosource DAL1100) and Hexosaminidase activity test, consecutively, following manufacturer instructions.
(§3) Data analysis was performed calculating the percentage of cell viability normalized vs. the values of negative control, which was considered equal to 100%. The dose/response curve was fitted through the sigmoidal equation dose-response (variable slope) and the EC50 values were calculated as follow: Y=Bottom+(Top−Bottom)/(1+10^{[(Log EC50−X)*HillSlope]},

The next assay deals with NCI-H187. The conditions noted are these: 72 h. Here is the method:
NCI-H187, epithelial (small cell lung cancer, SCLC), ATCC-CRL-5804;
(§4) Cell line MCF-7 was cultured in incubator under CO2 (6%) at 37° C. in DMEM high glucose (Dulbecco's Modified Eagle Solution, Gibco-BRL 31966-21) medium with 10% fetal bovine serum inactivated (FBS) (Gibco-BRL 10106-169). Cell lines HL-60, NCI-H524, NCI-H526, NCI-H69, NCI-H82, NCI-H187 and H5B were cultured in an incubator at 37° C. in RPMI-1640 (Sigma R8758) medium with 10% of fetal bovine serum inactivated (FBS) and 2 mM glutamine (Sigma G7513). Cell line NCI-H510A was cultured in incubator in F12K medium with 10% of fetal bovine serum inactivated (FBS). Cell line GBM-18 and GBM-27 were cultured in incubator under CO2 (6%) at 37° C. in complete medium (Neurobasal+B27+Glutamax+Growth factors).
(§5) During the amplification step and the assays, adherent cells were rinsed with DPBS (Dulbecco's Phosphate Buffered Saline, Sigma D1283) three times and afterward treated for 5 minutes with trypsin ([…]) (Gibco-BRL, 15400054) in solution of DPBS at 37° C., and, once detached, transferred in the culturing medium. No-adherent cells were centrifuged and transferred in the culturing medium. Cells were counted in a Neubauer chamber after labelling with Tripan-Blue.
as §1, §2
(§6) MTT: 1. Stock solution of MTT (475989 Calbiochem) was 5 mg/ml in PBS 1×. As negative control (experiment noise) 3 wells were treated with 20 μl/well of a solution of SDS 10% in H2O. The same control was used for Alamar Blue/Hexosaminidase. 10 μl/well of MTT solution were added and the plate was incubated for 3-4 hr. The medium was discarded and 100 μl of extracting buffer (PBS 1×, 15% SDS, 50% […] N,N-Dimethylformamide, pH 4,7) were added to each well. Plates were incubated for 16 h at room temperature under orbital shaking. Absorbance at 570 nm was finally measured.
(§7) Alamar Blue: 10 μl Alamar Blue solution was added to each well and the plates were incubated for […] in the incubator. Fluorescence ratio at 535/590 (excitation/emission) was measured in Cytofluor (Millipore) fluorimeter. Blank control was determined by lysis of untreated cells with con 2% of Triton X100, right before adding Alamar Blue solution.
(§8) Hexosaminidase activity test: after Alamar Blue lecture, medium was discarded and plates were rinsed once with PBS. 60 μl hexosaminidase substrate (p-nitrophenol-N-acetyl-beta-D-glucosamide 7.5 mM [Sigma N-9376], sodium citrate 0.1 M, pH 5.0, 0.25% Triton X-100) was added to each well and the plates were incubated at 37° C. for 2-5 h, according to the cell type (hexosaminidase activity changes according to the cell type). […] Blank control was the same as described before.
as §3

The subject of a further assay is NCI-H82. The conditions noted are these: 72 h. Here is the method: NCI-H82, epithelial (small cell lung cancer, SCLC), ATCC-CRL-5811;
as §4, §5, §1, §2, §6, §7, §8, §3

The test system of the next assay is NCI-H510A. The conditions noted are these: 72 h. As for the experimental part:
NCI-510A, epithelial (small cell lung cancer, SCLC), ATCC-HBT-124; and Hepatocytes (normal liver), from a donor was provided by Foundation DTI-Donation & Transplantation Institute from surgical wastes and from organs not suitable for transplantation
as §4, §5, §1, §2, §6, §7, §8, §3

As usually defined, the EC50 is the midpoint of the concentration-response curve.

The structures appear in SMILES notation. Numbered stars: 1 amine (or outer) side, 2 acyl side, 3 side chain; on linkers, the order of the positions; unused ones are H or OH. Bridge positions count the residues as written; N and C are the ends. Square brackets hold non-standard residues; d marks the D form. Peptide text beside a SMILES is read from it. ξ: configuration not given here. ξαMeNle(6-ylidene) = CC(CCCC=[*:3])(N[*:1])C(=O)[*:2]; X1 = CC(CCCCCCC=[*:3])(N[*:1])C(=O)[*:2]; R8 = C=CCCCCCC[C@@](C)(N)C(=O)O; S5 = C=CCCC[C@](C)(N)C(=O)O

`CC(C)C[C@@H]1NC(=O)[C@H](C)NC(=O)[C@H](C)NC(=O)[C@H](Cc2ccccc2)NC(=O)[C@](C)(NC(=O)[C@H](CC(C)C)NC(=O)[C@H](CC(N)=O)NC(=O)[C@@H](NC(=O)[C@H](CC(C)C)NC(=O)[C@H](CCCCN)NC(=O)[C@@H](NC(=O)[C@@H](N)CCCNC(=N)N)C(C)C)C(C)C)CCCCCCC=CCCC[C@@](C)(C(=O)N[C@H](C(=O)N2CCC[C@H]2C(N)=O)C(C)C)NC(=O)[C@H](CCC(=O)O)NC(=O)[C@H](CCCNC(=N)N)NC1=O` [IDP-H14-A09] (H-RVKLVNL[R8]FAALRE[S5]VP-NH2; staple 8-15; N-terminus assumed): the “inhibition of cancer cell proliferation (in words)” value (“inhibition” below) in the assay on cancer cell lines is “active”. For the same molecule, the EC50 with NCI-H187, in the assay with NCI-H82 and with NCI-H510A was about 7.5 µM each time.

For the molecule `CC(C)C[C@H](NC(=O)[C@H](CCCCN)NC(=O)[C@@H](NC(=O)[C@@H](N)CCCNC(=N)N)C(C)C)C(=O)N[C@H](C(=O)N[C@@H](CC(N)=O)C(=O)N[C@@H](CC(C)C)C(=O)NC1(C)CCCCCCC=CCCCC(C)(C(=O)N[C@H](C(=O)N[C@@H](CO)C(N)=O)C(C)C)NC(=O)[C@H](CCC(=O)O)NC(=O)[C@H](CCCNC(=N)N)NC(=O)[C@H](CC(C)C)NC(=O)[C@H]([C@@H](C)O)NC(=O)[C@H](C)NC(=O)[C@H](Cc2ccccc2)NC1=O)C(C)C` (stereo partly drawn) [IDP-H14-S15] (H-RVKLVNL[X1]FATLRE[ξαMeNle(6-ylidene)]VS-NH2; staple 8-15; N-terminus and C-terminus assumed), in the assay on cancer cell lines, the “inhibition” value is “active”. The EC50 in the assay with NCI-H187, with NCI-H82 and in the assay on NCI-H510A was about 7.5 µM throughout.

Consider `CC(C)C[C@H](NC(=O)[C@H](CC(N)=O)NC(=O)[C@@H](NC(=O)[C@H](CC(C)C)NC(=O)[C@H](CCCCN)NC(=O)[C@@H](NC(=O)[C@H](CCCNC(=N)N)NC(=O)[C@H](CCCNC(=N)N)NC(=O)[C@H](CCCNC(=N)N)NC(=O)[C@H](CCCNC(=N)N)NC(=O)[C@H](CCCNC(=N)N)NC(=O)[C@H](CCCNC(=N)N)NC(=O)[C@H](CCCNC(=N)N)NC(=O)[C@@H](N)CCCNC(=N)N)C(C)C)C(C)C)C(=O)NCC(=O)N[C@@H](Cc1ccccc1)C(=O)N[C@@H](C)C(=O)N[C@H](C(=O)N[C@@H](CC(C)C)C(=O)N[C@@H](CCCNC(=N)N)C(=O)N[C@@H](CCC(=O)O)C(=O)N[C@@H](Cc1c[nH]cn1)C(=O)N[C@H](C(=O)N1CCC[C@H]1C(N)=O)C(C)C)[C@@H](C)O` [LH02] (H-RRRRRRRRVKLVNLGFATLREHVP-NH2; N-terminus and C-terminus assumed), for which the EC50 in the assay on NCI-H187 was about 10 µM; in the assay with NCI-H82, about 7 µM.

On to `CC(C)C[C@H](NC(=O)[C@H](CCCCN)NC(=O)[C@@H](NC(=O)[C@@H](N)CCCNC(=N)N)C(C)C)C(=O)N[C@H](C(=O)N[C@@H](CC(N)=O)C(=O)N[C@@H](CC(C)C)C(=O)NC1(C)CCCCCCC=CCCCC(C)(C(=O)N[C@H](C(=O)N2CCC[C@H]2C(N)=O)C(C)C)NC(=O)[C@H](C)NC(=O)[C@H](CCCNC(=N)N)NC(=O)[C@H](CC(C)C)NC(=O)[C@H]([C@@H](C)O)NC(=O)[C@H](C)NC(=O)[C@H](Cc2ccccc2)NC1=O)C(C)C` (stereo partly drawn) [IDP-H14-A12] (H-RVKLVNL[X1]FATLRA[ξαMeNle(6-ylidene)]VP-NH2; staple 8-15; N-terminus and C-terminus assumed), for which, in the assay with cancer cell lines, the “inhibition” value is listed as “active”. The EC50 with NCI-H187, in the assay on NCI-H82 and in the assay on NCI-H510A was about 7.5 µM in each case.

In the case of `CC(C)C[C@H](NC(=O)[C@H](CCCCN)NC(=O)[C@@H](NC(=O)[C@@H](N)CCCNC(=N)N)C(C)C)C(=O)N[C@H](C(=O)N[C@@H](CC(N)=O)C(=O)N[C@@H](CC(C)C)C(=O)N[C@]1(C)CCCCCCC=CCCC[C@@](C)(C(=O)N[C@H](C(=O)N2CCC[C@H]2C(N)=O)C(C)C)NC(=O)[C@H](CCC(=O)O)NC(=O)[C@H](CCCNC(=N)N)NC(=O)[C@H](CC(C)C)NC(=O)[C@H]([C@@H](C)O)NC(=O)[C@H](CCC(N)=O)NC(=O)[C@H](Cc2ccccc2)NC1=O)C(C)C` [IDP-H14-Q9] (H-RVKLVNL[R8]FQTLRE[S5]VP-NH2; staple 8-15; N-terminus assumed), the “inhibition” value in the assay with cancer cell lines is “active”. Moreover, the EC50 with NCI-H187 is about 12.5 µM.

Regarding `CC(C)C[C@H](NC(=O)[C@H](CCCCN)NC(=O)[C@@H](NC(=O)[C@@H](N)CCCNC(=N)N)C(C)C)C(=O)N[C@H](C(=O)N[C@@H](CC(N)=O)C(=O)N[C@@H](CC(C)C)C(=O)NC1(C)CCCCCCC=CCCCC(C)(C(=O)N[C@H](C(=O)N2CCC[C@H]2C(N)=O)C(C)C)NC(=O)[C@H](Cc2ccccc2)NC(=O)[C@H](CCCNC(=N)N)NC(=O)[C@H](CC(C)C)NC(=O)[C@H]([C@@H](C)O)NC(=O)[C@H](C)NC(=O)[C@H](Cc2ccccc2)NC1=O)C(C)C` (stereo partly drawn) [IDP-H14-F12] (H-RVKLVNL[X1]FATLRF[ξαMeNle(6-ylidene)]VP-NH2; staple 8-15; N-terminus and C-terminus assumed), in the assay on cancer cell lines, the “inhibition” value is on record as “active”. The EC50 with NCI-H187, with NCI-H82 and in the assay with NCI-H510A was about 7.5 µM each time.

Regarding `CC(C)C[C@H](NC(=O)[C@H](CCCCN)NC(=O)[C@@H](NC(=O)[C@@H](N)CCCNC(=N)N)C(C)C)C(=O)N[C@H](C(=O)N[C@@H](CC(N)=O)C(=O)N[C@@H](CC(C)C)C(=O)NC1(C)CCCCCCC=CCCCC(C)(C(=O)N[C@H](C(=O)N[C@@H](CCC(N)=O)C(N)=O)C(C)C)NC(=O)[C@H](CCC(=O)O)NC(=O)[C@H](CCCNC(=N)N)NC(=O)[C@H](CC(C)C)NC(=O)[C@H]([C@@H](C)O)NC(=O)[C@H](C)NC(=O)[C@H](Cc2ccccc2)NC1=O)C(C)C` (stereo partly drawn) [IDP-H14-Q15] (H-RVKLVNL[X1]FATLRE[ξαMeNle(6-ylidene)]VQ-NH2; staple 8-15; N-terminus and C-terminus assumed), the “inhibition” value in the assay with cancer cell lines is on record as “active”. In addition, the EC50 in the assay on NCI-H187, with NCI-H82 and in the assay on NCI-H510A was about 7.5 µM each time.

Consider `CC(C)C[C@H](NC(=O)[C@H](CCCCN)NC(=O)[C@@H](NC(=O)[C@H](CCCNC(=N)N)NC(=O)[C@H](CCCNC(=N)N)NC(=O)[C@H](CCCNC(=N)N)NC(=O)[C@H](CCCNC(=N)N)NC(=O)[C@H](CCCNC(=N)N)NC(=O)[C@H](CCCNC(=N)N)NC(=O)[C@H](CCCNC(=N)N)NC(=O)[C@@H](N)CCCNC(=N)N)C(C)C)C(=O)N[C@H](C(=O)N[C@@H](CC(N)=O)C(=O)N[C@@H](CC(C)C)C(=O)NC1(C)CCCCCCC=CCCCC(C)(C(=O)N[C@H](C(=O)N2CCC[C@H]2C(N)=O)C(C)C)NC(=O)[C@H](CCC(=O)O)NC(=O)[C@H](CCCNC(=N)N)NC(=O)[C@H](CC(C)C)NC(=O)[C@H]([C@@H](C)O)NC(=O)[C@H](C)NC(=O)[C@H](Cc2ccccc2)NC1=O)C(C)C` (stereo partly drawn) [IDP-H14-CPP] (H-RRRRRRRRVKLVNL[X1]FATLRE[ξαMeNle(6-ylidene)]VP-NH2; staple 15-22; N-terminus and C-terminus assumed), for which the EC50 in the assay with NCI-H187, in the assay with NCI-H82 and with NCI-H510A was about 7.5 µM each time.
